Test results reported in PMC10059965, “Tsaokoic Acid: A New Bicyclic Nonene from the Fruits of Amomum tsao-ko with Acetylcholinesterase Inhibitory Activity” (Molecules, 2023).
Like-named read-outs stand apart in the source and are kept apart here.

Tests used:
AChE [1] = biological target: T1, AChE (Homo sapiens, UniProt P22303); assay: biochemical; conditions: for inhibition at 2 µM: concentration 2 μM; for inhibition at 10 µM: concentration 10 μM; for inhibition at 50 µM: concentration 50 μM
AChE [2] = biological target: T1, AChE; conditions: previous in vitro and in vivo reports; cited from earlier work
[3] = previous studies; cited from earlier work
[4] = Ellman method, pH 8.0, triplicate, read-out: IC50 (AChE-inhibitory activity)
[5] = read-out: Inhibition (%) of AChE

T1 sequence (P22303 32-614): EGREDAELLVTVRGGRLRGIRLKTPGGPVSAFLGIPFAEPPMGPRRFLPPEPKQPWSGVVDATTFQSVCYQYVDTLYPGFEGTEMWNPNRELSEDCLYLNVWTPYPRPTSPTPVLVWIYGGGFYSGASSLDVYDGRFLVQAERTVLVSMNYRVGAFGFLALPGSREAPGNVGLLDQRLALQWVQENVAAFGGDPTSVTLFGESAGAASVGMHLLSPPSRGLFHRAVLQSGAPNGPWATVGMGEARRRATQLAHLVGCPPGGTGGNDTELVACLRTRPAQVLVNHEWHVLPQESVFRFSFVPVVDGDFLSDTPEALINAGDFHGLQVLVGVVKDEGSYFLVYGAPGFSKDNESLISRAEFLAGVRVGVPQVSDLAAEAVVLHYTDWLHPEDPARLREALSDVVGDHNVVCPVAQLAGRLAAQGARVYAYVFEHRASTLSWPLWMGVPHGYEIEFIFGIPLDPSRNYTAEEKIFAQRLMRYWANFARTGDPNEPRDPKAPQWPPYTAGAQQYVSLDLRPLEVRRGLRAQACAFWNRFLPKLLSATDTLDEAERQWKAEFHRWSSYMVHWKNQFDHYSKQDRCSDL

Compound	IC50 (AChE [1]; [4]) [µM]	inhibition at 2 µM (AChE [1]) [%]	inhibition at 10 µM (AChE [1]) [%]	inhibition at 50 µM (AChE [1]) [%]	IC50 (AChE [1]) [µM]	AChE-inhibitory activities (AChE [2])	Antifungal activity [3]	inhibition at 0.04 µM (AChE [1]; [5]) [%]	inhibition at 0.2 µM (AChE [1]; [5]) [%]	inhibition at 1 µM (AChE [1]; [5]) [%]
O=C(O)C1=CC[C@@H](O)[C@H]2CCC[C@@H]12 (relative stereo) [Compound 1, rel-(1R,5R,6S)-5-hydroxybicyclo[4.3.0]non-2-ene-2-carboxylic acid]	32.8	2.09	29.5	70.9	–	–	–	–	–	–
COc1cc(C=O)ccc1O [Compound 3, vanillin]	–	-1.88	6.07	–	39.3	has AChE-inhibitory activities	–	–	–	–
O=CC1=CC[C@@H](O)[C@H]2CCC[C@@H]12 (relative stereo) [Compound 2, rel-(1R,5R,6S)-5-hydroxybicyclo[4,3,0]non-2-ene-2-carboxaldehyde]	41.7	-6.07	7.74	62.1	–	–	weak antifungal activity	–	–	–
COc1cc(/C=C/C=C/C(=O)CCc2ccc(O)cc2)ccc1O [Compound 4, tsaokoarylone]	31.1	-11.9	30.8	78.7	–	–	–	–	–	–
COc1ccc2cc3[n+](cc2c1OC)CCc1cc2c(cc1-3)OCO2 [berberine, reference compound]	–	–	–	–	–	–	–	20.7	73.4	95.8
